Patent US4690925A, “(2-Oxo-1,2,3,5-tetrahydroimidazo-[2,1-B]quinazolinyl) oxyalkylamides properties having phosphodiosterase inhibiting” (Syntex (U.S.A.) Inc., priority 1985, dated 1987)

What was measured:
Soluble dog heart PDE = test: Cyclic AMP phosphodiesterase inhibition, soluble dog heart PDE (Table I); type: biochemical; conditions: soluble dog heart PDE (footnote a)
Procedure: (§1) The inhibition of cyclic AMP phosphodiesterase activity by the subject compounds was assayed by the method of Filburn and Karn, Analyt. Biochem., 52: 505-516 (1973), using 1 μM cyclic AMP as the substrate. Human platelet cyclic AMP phosphodiesterase was obtained from human donors. Platelets were isolated and washed by centrifugation, the membranes ruptured by a sequential freeze-thaw procedure and hypotonic lysis and the soluble enzyme isolated by high speed centrifugation. The enzyme was stored in aliquots at -20° C.
(§2) This table contains the IC50 values for human platelet phosphodiesterase and IC25 values for rat heart phosphodiesterase.
^a Soluble dog heart PDE

[1] = molecular target: T1, Human platelet cyclic AMP phosphodiesterase (Homo sapiens, UniProt Q14432); test: Cyclic AMP phosphodiesterase assay, human platelet enzyme (Table I); type: biochemical; conditions: for IC50: 1 μM cyclic AMP as substrate, soluble enzyme from human platelets, read-out: Human Platelet IC50 (inhibition of cyclic AMP phosphodiesterase); for Relative Potency: relative to theophylline, which is assigned a value of 1 on human platelet phosphodiesterase
T1 construct: from tissue; host or cells: human platelets from donors, soluble fraction after freeze-thaw and hypotonic lysis
Procedure: as §1, §2

Soluble rat heart PDE = test: Cyclic AMP phosphodiesterase inhibition, soluble rat heart PDE (Table I); type: biochemical; conditions: soluble rat heart PDE (footnote b)
Procedure: as §1, §2
^b Soluble rat heart PDE

Lewis Lung Carcinoma = test: Antimetastatic activity against Lewis Lung Carcinoma (spontaneous metastases) (Table III); type: in vivo, mice (female, C57B1/6); conditions: 5 mg/kg oral, every other day, 20 to 21 days
Procedure: Mice (female, C57B1/6, 16-18 g) were inoculated subcutaneously between the inguinal and axillary areas with 0.2 ml of a freshly prepared tumor brei. Control mice were treated with vehicle. Other mice were treated orally with test compound in suspension in 0.5% carboxymethylcellulose (CMC). Treatments were initiated one day after tumor implanation, and continued every other day throughout the experiment. 20 to 21 days after implantation of the tumor, mice were sacrificed, the primary tumor was weighed, and the number of lung metastases was determined by counting under a dissecting microscope.

Mongrel dogs = test: Inotropic activity in anesthetized mongrel dogs (Table II); type: in vivo, dog; conditions: 1 mg/kg i.v., suspended in carboxymethylcellulose, vagotomized dogs
Procedure: Mongrel dogs were anesthetized intravenously with 35 mg/kg sodium pentobarbital and supplemented as needed. Blood pressure was measured with a Statham pressure transducer via a cannula inserted from a femoral artery into the abdominal aorta. Heart rate was recorded by a cardiotachometer from a lead II electrocardiogram. Right ventricular contractile force was recorded from a Walton-Brodie strain gauge sutured to the right ventricle following a midsternal thoracotomy. A Harvard respirator was used to ventilate the dogs with room air through an endotracheal tube. Each dog was bilaterally vagotomized. Following a midline laparotomy, a cannula was sutured into the duodenum for intraduodenal administration of test compound. A femoral vein was cannulated for administration of isoproterenol. All data were recorded on a Beckman R611 Dynograph.
To assess the responsiveness of each dog, isoproterenol was given intravenously at half-log interval doses from 0.007 to 6.67 μg/kg. The test compound was then administered intravenously at 1 mg/kg.

T1 sequence (Q14432 whole entry): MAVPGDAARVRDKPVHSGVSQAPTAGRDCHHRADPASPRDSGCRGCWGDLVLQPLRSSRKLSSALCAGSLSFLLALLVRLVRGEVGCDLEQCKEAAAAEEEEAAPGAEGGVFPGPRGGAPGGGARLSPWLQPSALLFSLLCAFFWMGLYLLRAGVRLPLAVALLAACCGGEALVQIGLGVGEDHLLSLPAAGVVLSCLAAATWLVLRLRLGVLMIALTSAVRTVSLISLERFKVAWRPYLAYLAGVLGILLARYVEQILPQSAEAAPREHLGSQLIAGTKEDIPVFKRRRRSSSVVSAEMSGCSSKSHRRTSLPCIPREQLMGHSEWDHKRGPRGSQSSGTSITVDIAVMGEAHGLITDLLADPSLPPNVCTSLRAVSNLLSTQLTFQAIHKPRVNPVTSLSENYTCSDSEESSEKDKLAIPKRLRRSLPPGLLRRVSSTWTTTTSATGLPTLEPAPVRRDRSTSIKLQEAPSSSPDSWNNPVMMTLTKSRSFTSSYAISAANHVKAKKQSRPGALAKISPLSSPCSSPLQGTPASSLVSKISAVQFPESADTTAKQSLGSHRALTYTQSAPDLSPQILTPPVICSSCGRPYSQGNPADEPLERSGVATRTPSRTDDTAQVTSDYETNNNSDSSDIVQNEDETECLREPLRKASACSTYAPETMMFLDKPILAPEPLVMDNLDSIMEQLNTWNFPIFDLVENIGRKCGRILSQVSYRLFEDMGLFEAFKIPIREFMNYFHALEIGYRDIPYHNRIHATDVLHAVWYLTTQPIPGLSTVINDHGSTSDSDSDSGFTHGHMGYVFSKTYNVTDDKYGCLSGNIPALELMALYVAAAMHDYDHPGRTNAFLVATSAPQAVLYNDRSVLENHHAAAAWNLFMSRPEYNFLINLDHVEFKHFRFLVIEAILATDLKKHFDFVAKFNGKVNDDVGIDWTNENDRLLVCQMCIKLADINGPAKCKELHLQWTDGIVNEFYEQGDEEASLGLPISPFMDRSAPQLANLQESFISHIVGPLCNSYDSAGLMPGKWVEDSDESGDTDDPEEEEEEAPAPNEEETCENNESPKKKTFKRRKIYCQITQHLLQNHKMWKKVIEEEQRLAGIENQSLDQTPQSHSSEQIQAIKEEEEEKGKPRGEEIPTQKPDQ

## NC(=O)CN(C(=O)CCCOc1ccc2c(c1)CN1CC(=O)NC1=N2)C1CCCCC1 [2-(N-cyclohexyl-4-(2-oxo-1,2,3,5-tetrahydroimidazo[2,1-b]quinazolin-7-yl)oxybutyramidyl)acetamide]
Soluble dog heart PDE
  Heart IC25 (inhibition of cyclic AMP phosphodiesterase), soluble dog heart PDE: 100 nM
[1]
  IC50: 11 nM
  Relative Potency: 24,500

## O=C(O)CN(C(=O)CCCOc1ccc2c(c1)CN1CC(=O)NC1=N2)C1CCCCC1 [2-(N-cyclohexyl-4-(2-oxo-1,2,3,5-tetrahydroimidazo[2,1-b]quinazolin-7-yl)oxybutyramidyl)acetic acid]
Soluble rat heart PDE
  Heart IC25 (inhibition of cyclic AMP phosphodiesterase), soluble rat heart PDE: 100 nM
Lewis Lung Carcinoma; control range 0-29
  Number of Pulmonary Metastases, Range: 0-11
Lewis Lung Carcinoma; p < 0.05, control median 5
  Number of Pulmonary Metastases, Median: 0
[1]
  IC50: 5 nM
  Relative Potency: 54,000
Mongrel dogs
  Blood Pressure, peak effect: 32 % of Max. Isoproterenol
  Heart Rate, peak effect: 30 % of Max. Isoproterenol
  Rt. Ventricular Contractile Force, peak effect: 33 % of Max. Isoproterenol

## COC(=O)CN(C(=O)CCCOc1ccc2c(c1)CN1CC(=O)NC1=N2)C1CCCCC1 [Methyl 2-(N-cyclohexyl-4-(2-oxo-1,2,3,5-tetrahydroimidazo[2,1-b]quinazolin-7-yl)oxybutyramidyl)acetate]
Soluble dog heart PDE
  Heart IC25 (inhibition of cyclic AMP phosphodiesterase), soluble dog heart PDE: 10.0 nM
[1]
  IC50: 2 nM
  Relative Potency: 135,000
